Experimental data from US7150967B2, “Fluorescent tags for amino acid and nucleic acid analysis” (University of Medicine & Dentistry of New Jersey, priority 2002, dated 2006).

Experiments:
[1] = target: bovine serum albumin (BSA) (Bos taurus, UniProt P02769); experiment: Reaction with the thiol containing species bovine serum albumin, monitored by ultraviolet absorbance spectra; conditions: BSA 0.1 μg, 2.5 μmol compound, 30 minutes at 37° C.
Description: BSA (0.1 μg) was reacted with 2.5 μmol iodomercurio-H2DMP (IM-H2DMP) for 30 minutes at 37° C.

BSA = BSA (Bos taurus, UniProt P02769); experiment: Detection of a protein on a 10% PAGE gel via formation of a fluorescent reaction product; design: species or system bovine; conditions: BSA 150 μg, 1.5 nmol compound, 30 minutes at 37° C.
Description: In these experiments, BSA (150 μg) was reacted with the mercurimethyl-dihydropsoralen 3-cyanomercurio-H2DMP (1.5 nmol) for 30 minutes at 37° C. The products were then run on a 10% PAGE gel to separate any reaction product from unreacted psoralen. The fluorescent BSA-mercurimethyl-dihydropsoralen reaction product was […].

bovine serum albumin (BSA), sequence (P02769 25-607): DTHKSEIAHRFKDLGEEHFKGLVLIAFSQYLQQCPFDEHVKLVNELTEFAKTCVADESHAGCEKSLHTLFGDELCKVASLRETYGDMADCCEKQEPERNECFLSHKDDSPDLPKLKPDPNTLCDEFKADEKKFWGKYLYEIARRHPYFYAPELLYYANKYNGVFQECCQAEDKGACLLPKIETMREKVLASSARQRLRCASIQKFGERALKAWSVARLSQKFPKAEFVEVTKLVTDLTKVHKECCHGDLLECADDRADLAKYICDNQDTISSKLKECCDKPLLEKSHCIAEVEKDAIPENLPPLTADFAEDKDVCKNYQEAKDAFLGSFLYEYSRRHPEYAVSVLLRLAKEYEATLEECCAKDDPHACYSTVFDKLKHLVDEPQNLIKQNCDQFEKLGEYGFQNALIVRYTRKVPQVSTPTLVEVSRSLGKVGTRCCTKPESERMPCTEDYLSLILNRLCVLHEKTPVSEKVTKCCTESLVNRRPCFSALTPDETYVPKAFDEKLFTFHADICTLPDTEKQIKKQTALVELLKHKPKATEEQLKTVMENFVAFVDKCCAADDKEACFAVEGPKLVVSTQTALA

## Cc1cc(=O)oc2c(C)c3c(cc12)CC([CH2][Hg][I])O3 (centres unmarked) [Compound P1, iodomercurio-H2DMP]
[1]
  change in ultraviolet absorbance spectra (formation of new reaction product): change in the ultraviolet absorbance spectra indicative of formation of a new reaction product was observed

## CC(=O)[O][Hg][CH2]C1Cc2cc3c(C)c(C#N)c(=O)oc3c(C)c2O1 (centres unmarked) [Compound P6, 3-cyano-acetylmercurio-H2DMP]
BSA
  ability to detect a protein on a gel via fluorescent reaction product: demonstrated
